Test results from ChEMBL document CHEMBL2434921, “New synthetic aliphatic sulfonamido-quaternary ammonium salts as anticancer chemotherapeutic agents” (2013).
Activity calls are given as the source filed them. The rule behind the calls is not given here.

Key:
HCT-15 [1] = experiment: Growth inhibition of human HCT15 cells at 1 uM after 48 hrs by SRB assay; values are per cent of control; settings: HCT-15, 48 h
PC-3 [2] = experiment: Growth inhibition of human PC3 cells at 3 uM after 48 hrs by SRB assay; values are per cent of control; settings: PC-3, 48 h
NUGC-3 [3] = experiment: Growth inhibition of human NUGC3 cells after 48 hrs by SRB assay; format: functional; settings: NUGC-3, 48 h
HCT-15 [4] = experiment: Growth of human HCT15 cells at 0.3 uM after 48 hrs by SRB assay; settings: HCT-15, 48 h
PC-3 [5] = experiment: Growth inhibition of human PC3 cells at 0.3 uM after 48 hrs by SRB assay; values are per cent of control; settings: PC-3, 48 h
NCI-H23 [6] = experiment: Growth inhibition of human NCI-H23 cells at 3 uM after 48 hrs by SRB assay; values are per cent of control; settings: NCI-H23, 48 h
ACHN [7] = experiment: Growth of human ACHN cells at 10 uM after 48 hrs by SRB assay
NCI-H23 [8] = experiment: Growth of human NCI-H23 cells at 10 uM after 48 hrs by SRB assay; settings: NCI-H23, 48 h
NUGC-3 [9] = experiment: Growth inhibition of human NUGC3 cells at 3 uM after 48 hrs by SRB assay; values are per cent of control; settings: NUGC-3, 48 h
PC-3 [10] = experiment: Growth inhibition of human PC3 cells at 1 uM after 48 hrs by SRB assay; values are per cent of control; settings: PC-3, 48 h
NCI-H23 [11] = experiment: Growth inhibition of human NCI-H23 cells at 1 uM after 48 hrs by SRB assay; values are per cent of control; settings: NCI-H23, 48 h
HCT-15 [12] = experiment: Growth of human HCT15 cells at 3 uM after 48 hrs by SRB assay; settings: HCT-15, 48 h
HCT-15 [13] = experiment: Growth inhibition of human HCT15 cells at 10 uM after 48 hrs by SRB assay; values are per cent of control; settings: HCT-15, 48 h
ACHN [14] = experiment: Growth inhibition of human ACHN cells at 1 uM after 48 hrs by SRB assay; values are per cent of control
NUGC-3 [15] = experiment: Growth of human NUGC3 cells at 1 uM after 48 hrs by SRB assay; settings: NUGC-3, 48 h
MDA-MB-231 [16] = experiment: Growth inhibition of human MDA-MB-231 cells after 48 hrs by SRB assay; format: functional; settings: MDA-MB-231, 48 h
NUGC-3 [17] = experiment: Growth of human NUGC3 cells at 0.1 uM after 48 hrs by SRB assay; settings: NUGC-3, 48 h
ACHN [18] = experiment: Growth of human ACHN cells at 0.3 uM after 48 hrs by SRB assay
MDA-MB-231 [19] = experiment: Growth of human MDA-MB-231 cells at 1 uM after 48 hrs by SRB assay; settings: MDA-MB-231, 48 h
ACHN [20] = experiment: Growth inhibition of human ACHN cells at 3 uM after 48 hrs by SRB assay; values are per cent of control
NUGC-3 [21] = experiment: Growth of human NUGC3 cells at 0.3 uM after 48 hrs by SRB assay; settings: NUGC-3, 48 h
MDA-MB-231 [22] = experiment: Growth of human MDA-MB-231 cells at 3 uM after 48 hrs by SRB assay; values are per cent of control; settings: MDA-MB-231, 48 h
NCI-H23 [23] = experiment: Growth inhibition of human NCI-H23 cells after 48 hrs by SRB assay; format: functional; settings: NCI-H23, 48 h
MDA-MB-231 [24] = experiment: Growth inhibition of human MDA-MB-231 cells at 0.3 uM after 48 hrs by SRB assay; values are per cent of control; settings: MDA-MB-231, 48 h
NCI-H23 [25] = experiment: Growth inhibition of human NCI-H23 cells at 0.1 uM after 48 hrs by SRB assay; values are per cent of control; settings: NCI-H23, 48 h
NCI-H23 [26] = experiment: Growth of human NCI-H23 cells at 0.3 uM after 48 hrs by SRB assay; settings: NCI-H23, 48 h
MDA-MB-231 [27] = experiment: Growth of human MDA-MB-231 cells at 10 uM after 48 hrs by SRB assay; settings: MDA-MB-231, 48 h
HCT-15 [28] = experiment: Growth inhibition of human HCT15 cells after 48 hrs by SRB assay; format: functional
ACHN [29] = experiment: Growth inhibition of human ACHN cells after 48 hrs by SRB assay; format: functional
HCT-15 [30] = experiment: Growth inhibition of human HCT15 cells at 0.1 uM after 48 hrs by SRB assay; values are per cent of control; settings: HCT-15, 48 h
NUGC-3 [31] = experiment: Growth inhibition of human NUGC3 cells at 10 uM after 48 hrs by SRB assay; values are per cent of control; settings: NUGC-3, 48 h
PC-3 [32] = experiment: Growth inhibition of human PC3 cells at 0.1 uM after 48 hrs by SRB assay; values are per cent of control; settings: PC-3, 48 h
PC-3 [33] = experiment: Growth of human PC3 cells at 10 uM after 48 hrs by SRB assay; settings: PC-3, 48 h
[34] = biological target: Rho-related GTP-binding protein RhoB (Homo sapiens) (UniProt P62745); experiment: Transactivation of RhoB (unknown origin) transfected in human HeLa cells at 5 uM measured over 10 secs by dual luciferase reporter gene assay; format: cell-based
Rho-related GTP-binding protein RhoB (Homo sapiens), sequence (P62745 whole entry): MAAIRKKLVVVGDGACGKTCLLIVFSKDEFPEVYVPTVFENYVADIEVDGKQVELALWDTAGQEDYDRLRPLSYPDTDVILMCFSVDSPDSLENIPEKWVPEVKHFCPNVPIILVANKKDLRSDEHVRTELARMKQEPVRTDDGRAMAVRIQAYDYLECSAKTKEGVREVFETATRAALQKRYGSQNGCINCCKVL

MDA-MB-231 [35] = experiment: Growth of human MDA-MB-231 cells at 0.1 uM after 48 hrs by SRB assay; settings: MDA-MB-231, 48 h
PC-3 [36] = experiment: Growth inhibition of human PC3 cells after 48 hrs by SRB assay; format: functional; settings: PC-3, 48 h
ACHN [37] = experiment: Growth of human ACHN cells at 0.1 uM after 48 hrs by SRB assay

Row | SMILES | growth, % of control at 1 µM (HCT-15 [1]) | growth, % of control at 3 µM (PC-3 [2]) | GI50 (NUGC-3 [3]) | growth, % of control at 0.3 µM (HCT-15 [4]) | growth, % of control at 0.3 µM (PC-3 [5]) | growth, % of control at 3 µM (NCI-H23 [6]) | growth, % of control at 10 µM (ACHN [7]) | growth, % of control at 10 µM (NCI-H23 [8]) | growth, % of control at 3 µM (NUGC-3 [9]) | growth, % of control at 1 µM (PC-3 [10]) | growth, % of control at 1 µM (NCI-H23 [11]) | growth, % of control at 3 µM (HCT-15 [12]) | growth, % of control at 10 µM (HCT-15 [13]) | growth, % of control at 1 µM (ACHN [14]) | growth, % of control at 1 µM (NUGC-3 [15]) | GI50 (MDA-MB-231 [16]) | growth, % of control at 0.1 µM (NUGC-3 [17]) | growth, % of control at 0.3 µM (ACHN [18]) | growth, % of control at 1 µM (MDA-MB-231 [19]) | growth, % of control at 3 µM (ACHN [20]) | further results
1 | CCCCCCCCCCCCCCCCS(=O)(=O)N(C)CC[N+](CC)(CC)CC | 73.5% | 11.3% | 220 nM | 87.6% | 84.7% | 15.5% | 15.4% | 3.4% | 5.8% | 47.5% | 44.3% | 50.9% | 21.8% | 70.4% | 19.6% | 1170 nM | 69.8% | 92.8% | 65.5% | 43.4% | growth, % of control at 0.3 µM (NUGC-3 [21]): 70.3%; growth, % of control at 3 µM (MDA-MB-231 [22]): 37.4%; GI50 (NCI-H23 [23]): 550 nM; growth, % of control at 0.3 µM (MDA-MB-231 [24]): 96.5%; growth, % of control at 0.1 µM (NCI-H23 [25]): 94%; growth, % of control at 0.3 µM (NCI-H23 [26]): 93.7%; growth, % of control at 10 µM (MDA-MB-231 [27]): 20%; GI50 (HCT-15 [28]; HCT-15, 48 h): 1610 nM; GI50 (ACHN [29]): 1310 nM; growth, % of control at 0.1 µM (HCT-15 [30]): 83%; growth, % of control at 10 µM (NUGC-3 [31]): -4%; growth, % of control at 0.1 µM (PC-3 [32]): 95.5%; growth, % of control at 10 µM (PC-3 [33]): -21.4%; Activity [34]: Active; growth, % of control at 0.1 µM (MDA-MB-231 [35]): 87.3%; GI50 (PC-3 [36]): 520 nM; growth, % of control at 0.1 µM (ACHN [37]): 92.6%
2 | CCCCCCCCCCCCCCCCS(=O)(=O)N(C)CCC[N+](C)(C)C | 57% | -24.5% | 210 nM | 104% | 91% | 26.5% | -31.4% | -10.4% | -22.4% | 31.5% | 72.7% | 26.7% | 8.7% | 72.2% | 25% | 1040 nM | 91.8% | 97.6% | 66.5% | 36.3% | growth, % of control at 0.3 µM (NUGC-3 [21]): 59.1%; growth, % of control at 3 µM (MDA-MB-231 [22]): 39.2%; GI50 (NCI-H23 [23]): 910 nM; growth, % of control at 0.3 µM (MDA-MB-231 [24]): 92.3%; growth, % of control at 0.1 µM (NCI-H23 [25]): 94.9%; growth, % of control at 0.3 µM (NCI-H23 [26]): 97.3%; growth, % of control at 10 µM (MDA-MB-231 [27]): 8.8%; GI50 (HCT-15 [28]; HCT-15, 48 h): 780 nM; GI50 (ACHN [29]): 1000 nM; growth, % of control at 0.1 µM (HCT-15 [30]): 100%; growth, % of control at 10 µM (NUGC-3 [31]): -40.9%; growth, % of control at 0.1 µM (PC-3 [32]): 101%; growth, % of control at 10 µM (PC-3 [33]): -54.1%; Activity [34]: Active; growth, % of control at 0.1 µM (MDA-MB-231 [35]): 97.6%; GI50 (PC-3 [36]): 440 nM; growth, % of control at 0.1 µM (ACHN [37]): 96.7%
3 | CCCCCCCCCCCCCCS(=O)(=O)NCC(C)(C)C[N+](C)(C)CC | 104% | -11.9% | 510 nM | 111% | 99.3% | 28.3% | 36.1% | -4% | 3.9% | 19.6% | 52.9% | 91.6% | 59.4% | 68.2% | 33.8% | 720 nM | 110% | 97.7% | 49.9% | 60.6% | growth, % of control at 0.3 µM (NUGC-3 [21]): 107%; growth, % of control at 3 µM (MDA-MB-231 [22]): 32.8%; GI50 (NCI-H23 [23]): 730 nM; growth, % of control at 0.3 µM (MDA-MB-231 [24]): 89.3%; growth, % of control at 0.1 µM (NCI-H23 [25]): 121%; growth, % of control at 0.3 µM (NCI-H23 [26]): 109%; growth, % of control at 10 µM (MDA-MB-231 [27]): 12.9%; GI50 (HCT-15 [28]): inactive; GI50 (ACHN [29]): 2520 nM; growth, % of control at 0.1 µM (HCT-15 [30]): 112%; growth, % of control at 10 µM (NUGC-3 [31]): -15.7%; growth, % of control at 0.1 µM (PC-3 [32]): 106%; growth, % of control at 10 µM (PC-3 [33]): -26%; Activity [34]: Active; growth, % of control at 0.1 µM (MDA-MB-231 [35]): 91.2%; GI50 (PC-3 [36]): 460 nM; growth, % of control at 0.1 µM (ACHN [37]): 101%
